Tests used:
[1] = test system: endothelial glycocalyx; conditions: in vivo; cited from earlier work
[2] = test system: endothelial glycocalyx; set-up: species or system human; conditions: in vivo
[3] = test system: monocytes; assay: Leukocyte differentiation and monocyte flow cytometry after endotoxin challenge; format: in vivo, human
Protocol: (§1) Twentyone healthy Caucasian male volunteers were studied. […] Participants had no history of cardiovascular disease. […] All experiments were performed after an overnight fast.
Whole blood samples were collected in pyrogen-free lithium-heparin tubes and then incubated for 10 min with 9 volumes ice-cold erythrocyte lysis buffer and centrifuged for 10 min at 4° C. Remaining cells were washed twice with ice-cold PBS. For flow cytometric analysis 0.5×10^6 cells were incubated in FACS buffer mixed with antibody. All reagents were titrated to obtain optimal results as recommended by the manufacturers. Cell surface staining was performed with Fluorescein Isothiocyanate (FITC) labelled mouse anti-human CD14 (IgG2a), anti-human Allophycocyanin (APC) labelled CD18 (IgG1) and Phycoerythrin (PE) labelled anti-human CD11b (IgG1) and CD62L (IgG1) (R&D Systems, San Jose, Calif., USA). Appropriate isotype control antibodies were used to correct for non-specific antibody binding. After staining, the cells were washed, fixed in 4% paraformaldehyde, and analyzed by flow cytometry using a FACS Calibur flow cytometer. Data were analyzed with CellQuest software (Becton Dickinson, Franklin Lakes, N.J., USA).

[4] = test system: glycocalyx shedding; assay: Plasma glycocalyx components (hyaluronan, heparan sulphate) and hyaluronidase activity after endotoxin challenge; format: in vivo, human
Protocol: as §1

[5] = test system: thrombin generation and fibrinolysis; assay: Coagulation and fibrinolysis markers (prothrombin fragment F1+2, D-dimer) after endotoxin challenge; format: in vivo, human; conditions: p<0.05
Protocol: as §1

[6] = test system: endotoxin-induced inflammatory reactions; assay: Clinical symptoms and vital signs after intravenous endotoxin challenge in healthy male volunteers; format: in vivo, human
Protocol: as §1

[7] = test system: endothelial glycocalyx; assay: Estimation of systemic glycocalyx volume (Dextran 40 distribution volume minus circulating plasma volume) after endotoxin challenge; format: in vivo, human; set-up: haematocrit values: unit not given here; conditions: 4 hours after endotoxin infusion
Protocol: as §1
Systemic glycocalyx volume was estimated as previously published by subtracting circulating plasma volume from the intravascular distribution volume of the glycocalyx permeable tracer Dextran 40 (Nieuwdorp M et al. 2006. Diabetes 55: 480-6; Suffredini et al. 1999, supra). Circulating plasma volume was calculated with a previously published method (Orth et al. 1998. Anesth Analg 87: 1234-8). The intravascular distribution volume of labelled autologous erythrocytes was used to quantify the circulating blood volume. Blood was drawn and centrifuged at 1,330 rpm for 5 minutes. Subsequently, sodium fluorescein (fluorescein-di-Na 25%, 250 mg/ml, AZUA Pharmacy, Amsterdam, the Netherlands) was added to the erythrocyte fraction for 5 minutes. After careful washing, labelled erythrocytes were resuspended in saline to the initial volume (60 ml) and re-infused. Subsequently, blood was drawn at 4, 5, 6, and 7 minutes after infusion. The fraction of labelled erythrocytes in the total erythrocyte pool was used to estimate the circulating erythrocyte volume (VERY). Pre-injection unlabeled erythrocytes served as negative control. The fraction of labelled erythrocytes in the blood was measured using a FACScan analyzer (FACS Calibur®, Becton Dickinson, Mountain View, USA). At least 100,000 cells were counted. Data were analyzed by Cellquest (Becton Dickinson, San Jose, Calif., USA). Haematocrit (Ht) was measured after centrifugation of heparinized blood in a Hettich-Haematokrit centrifuge at 10,000 rpm during 5 minutes (Hettich, Tuttlingen, Germany). Circulating plasma volume was calculated from VERY and large vessel Ht by the following formula: circulating plasma volume=([1−Ht]×VERY)/Ht.
Dextran 40 (Rheomacrodex; NPBI International, Emmercompascuum, the Netherlands) was used as a probe to estimate total intravascular volume, which includes the glycocalyx compartment. A bolus of 10 ml Dextran 1 (Promiten; NPBI International, Emmer-compascuum, the Netherlands) was injected to attenuate the risk of anaphylactic reactions prior to Dextran 40 infusion. 100 ml Dextran 40 was injected intravenously, followed by repeated blood sampling at 5, 7, 10, 15, 20, and 30 minutes. Dextran 40 concentration was calculated by measuring the increase in glucose concentration in the post infusion samples after hydrolyzation of Dextran 40 glucose polymers (Van Kreel et al. 1998. Clin Chim Acta 275: 71-80). Glucose concentration per time point was assessed in duplicate using the hexokinase method (Gluco-quant, Hitachi 917; Hitachi). To determine the initial intravascular distribution volume of Dextran 40, the concentration of Dextran 40 at the time of injection was estimated by exponential fitting of the measured Dextran 40 concentrations. Exponential time constants (τ [min]) were used to determine Dextran 40 systemic clearance rates (τ^−1 min^−1).

[8] = test system: TNFα-induced inflammatory responses; assay: Plasma inflammatory markers (IL-6, CRP) and circulating leukocytes after endotoxin challenge; format: in vivo, human
Protocol: as §1

[9] = test system: sublingual microcirculation; assay: Microvascular glycocalyx / capillary density by OPS imaging of the sublingual microcirculation after endotoxin challenge; format: in vivo, human; conditions: upon endotoxin challenge; from 59±7 at baseline; p<0.01
Protocol: as §1
Thickness of endothelial glycocalyx in individual capillary blood vessels was measured by orthogonal polarization spectral (OPS) imaging of the sublingual microcirculation (Cytometrics, Philadelphia, Pa., USA) as previously published (Nieuwdorp et al. 2006, supra; Nieuwdorp et al. 2006. Diabetes 55: 1127-32). In short, the width of flowing erythrocytes was measured in 5 individual capillaries before and immediately after capillary leukocyte passage. In healthy capillaries, the glycocalyx limits capillary blood filling by separating erythrocytes from the luminal endothelial surface, which is known as the red cell exclusion zone. […] Images sized 728×576 pixels were recorded were collected with a 5× objective providing a 325× magnification at a frame rate of 25/second. […] The anatomical capillary diameter and the width of the flowing erythrocyte column were measured using digital calipers prior to and after spontaneous capillary leukocyte passage. Per participant, glycocalyx dimension was determined in at least 5 capillaries. […] In addition as indication of capillary density, the number of capillaries per field was counted.

Molecule: O=[N+]([O-])OCC(CO[N+](=O)[O-])O[N+](=O)[O-] [nitroglycerine]
- effect on the glycocalyx as known [1]: known to cause damage to the glycocalyx
- status of the glycocalyx (RBCW, glycocalyx width; FIGS. 5A and 5B) [2]: a clear distinction between the status of the glycocalyx in treated and untreated subjects

Molecule: Etanercept
- reduction of monocyte count ([3]; 4 hours after endotoxin infusion, p<0.05 compared to baseline): 51±32%
- change in percentage of CD62L+ (L-selectin) expressing monocytes ([3]; 4 hours after endotoxin, p<0.05 versus saline group): +66±42%
- CD14+ monocyte counts ([3]; after endotoxin infusion, ns between groups): 26±13%
- CD11b+/CD18+ (Mac-1 complex) monocyte count, median ([3]; after endotoxin infusion, p<0.01 versus saline): 0.65±0.1
- plasma hyaluronidase activity, change compared to baseline ([4]; 4 hours after endotoxin infusion, ns): −8±14%
- plasma heparan sulphate levels ([4]; 24 hours after endotoxin infusion, p<0.01 versus saline group): 7.4 ± 1.5 µg/mL
- heparan sulphate plasma levels ([4]; during the 4 hours after endotoxin challenge, from 5.4±1.3, ns): 5.1 ± 1.0 µg/mL
- plasma hyaluronan levels ([4]; within first hour after endotoxin infusion, from 58±13, p<0.05): 46 ± 10 ng/mL
- D-dimer ([5]; from 0.2±0.1 at baseline): 0.3 ± 0.1 mg/L
- prothrombin activation fragment F1+2 ([5]; from 0.3±0.1 at baseline): 2.1 ± 0.9 nmol/L
- body temperature ([6]; 4 hours after endotoxin infusion, from 36.6±0.5 at baseline, ns): 37.3±0.5 °C
- heart rate ([6]; 4 hours after endotoxin infusion, from 62±4 at baseline, ns): 69±3
- diastolic blood pressure ([6]; 4 hours after endotoxin infusion, from 69±6 at baseline, ns): 67±6 mm Hg
- systolic blood pressure ([6]; 4 hours after endotoxin infusion, from 125±7 at baseline, ns): 123±10 mmHg
- clinical symptoms of endotoxemia (chills, headache, myalgia, nausea) ([6]; after endotoxin infusion, saline versus Etanercept group, data not shown): more frequently and more intensive in the saline group compared to the Etanercept group
- systemic glycocalyx volume ([7]; baseline 1.7±0.5, p<0.01): 1.1 ± 0.2 L
- systemic Dextran 40 clearance rate ([7]; from 0.009±0.002 at baseline, ns): 0.009 ± 0.001 min⁻¹
- haematocrit values ([7]; from 0.43±0.02 at baseline, ns): 0.42±0.02
- circulating plasma volume ([7]; from 2.9±0.5 at baseline, ns): 2.8 ± 0.6 L
- Dextran 40 distribution volume ([7]; from 4.6±0.6 at baseline, p<0.05): 3.9 ± 0.5 L
- rate of Dextran 40 plasma clearance (FIG. 1B) ([7]; saline group versus Etanercept group): increased in the saline group as compared with Etanercept group
- number of circulating leukocytes compared to baseline ([8]; 4 hours after endotoxin, both treatment groups): doubled
- plasma CRP ([8]; after endotoxin challenge, from 0.6±0.4 at baseline, p<0.01): 16.0 ± 3.4 mg/L
- plasma IL-6 ([8]; after endotoxin challenge, from 4.6±3.1 at baseline, p<0.05): 127 ± 98 pg/mL
- capillary density (number of capillaries per field) [9]: 43±15
